Test results from the NIST ThermoML archive (doi:10.1021/je400951k).

C[C@H]1CC[C@@H]2C[C@H]1C2(C)C (racemic) [(1RS,2SR,5RS)-2,6,6-trimethylbicyclo[3.1.1]heptane]
Liquid, Closed cell (Static) method
Conditions | vapor or sublimation pressure [kPa]
330.27 K | 2.04
338.5 K | 3.03
344.71 K | 4.015
349.8 K | 4.98
357.77 K | 7.015
360.94 K | 8.015
366.78 K | 10.04
373.45 K | 13.04
379.03 K | 16.05
385.72 K | 20.04
392.24 K | 25.05
397.94 K | 30.04
407.54 K | 40.03
415.01 K | 50.03

CC(=O)O[C@@H]1C[C@H]2CC[C@]1(C)C2(C)C (relative stereo)
Liquid, Closed cell (Static) method
Conditions | vapor or sublimation pressure [kPa]
381.09 K | 2.004
390.08 K | 3.021
397.1 K | 4.013
402.69 K | 5.01
407.45 K | 6.023
411.6 K | 7.027
414.92 K | 8.014
418.66 K | 9.042
421.67 K | 10.03
427.93 K | 12.04
434.61 K | 15.02
442.35 K | 19.12
452.64 K | 26.01
457.89 K | 30.15
463.13 K | 35
468.12 K | 40.12
472.63 K | 45.25

C=C(C)C1CC=C(C)CC1 (stereo unspecified) [1-methyl-4-(1-methylethenyl)cyclohexene]
Liquid, Closed cell (Static) method
Conditions | vapor or sublimation pressure [kPa]
346.96 K | 3.01
353.19 K | 4.013
358.22 K | 5.008
362.25 K | 6.002
366.08 K | 7.018
369.31 K | 8.018
372.54 K | 9.043
375.27 K | 10.02
379.93 K | 12.04
386.12 K | 15.04
394.56 K | 20.01
401.29 K | 25.04
407.1 K | 30.09
416.21 K | 39.91
420.21 K | 44.8

C=C1C2CCC(C2)C1(C)C (stereo unspecified) [2,2-dimethyl-3-methylenebicyclo[2.2.1]heptane]
Conditions | vapor or sublimation pressure [kPa]
309.7 K, Metastable liquid, Closed cell (Static) method | 1.007
322.72 K, Closed cell (Static) method, Liquid | 2.026
331.06 K, Closed cell (Static) method, Liquid | 3.053
337.27 K, Closed cell (Static) method, Liquid | 4.056
342.04 K, Closed cell (Static) method, Liquid | 5.043
346.21 K, Closed cell (Static) method, Liquid | 6.007
350.07 K, Closed cell (Static) method, Liquid | 7.068
353.23 K, Closed cell (Static) method, Liquid | 8.029
355.98 K, Closed cell (Static) method, Liquid | 9.003
358.83 K, Closed cell (Static) method, Liquid | 10.07
365.69 K, Closed cell (Static) method, Liquid | 13.05
369.58 K, Closed cell (Static) method, Liquid | 15.06
378.51 K, Closed cell (Static) method, Liquid | 20.12
384.98 K, Closed cell (Static) method, Liquid | 25
390.65 K, Closed cell (Static) method, Liquid | 29.95
399.95 K, Closed cell (Static) method, Liquid | 40.04
407.61 K, Closed cell (Static) method, Liquid | 50.02

C=CC(C)CCCC(C)(C)O (stereo unspecified) [2,6-dimethyl-7-octen-2-ol]
Liquid, Closed cell (Static) method
Conditions | vapor or sublimation pressure [kPa]
351.52 K | 0.82
354.37 K | 1.015
360.41 K | 1.516
365.22 K | 2.03
372.31 K | 3.024
377.4 K | 4.017
381.86 K | 5.015
388.97 K | 7.03
394.58 K | 9.035
401.82 K | 12.04
407.61 K | 15.04
415.17 K | 20.03
421.59 K | 25.04

C=CC(C)CCC=C(C)C (stereo unspecified) [3,7-dimethyl-1,6-octadiene]
Liquid, Closed cell (Static) method
Conditions | vapor or sublimation pressure [kPa]
316.5 K | 1.26
322.57 K | 1.76
327.44 K | 2.26
334.96 K | 3.26
340.66 K | 4.26
345.44 K | 5.26
349.51 K | 6.26
356.16 K | 8.25
361.68 K | 10.23
373.78 K | 16.25
379.02 K | 20.26
385.62 K | 25.26
391.11 K | 30.26

CCCCCCCCO [octan-1-ol]
Liquid, Closed cell (Static) method
Conditions | vapor or sublimation pressure [kPa]
358.05 K | 1.088
363.99 K | 1.527
368.73 K | 2.016
381.98 K | 4.073
393.36 K | 7.08
401.09 K | 10.04
410.79 K | 15.04
418.15 K | 20.03
429.75 K | 30.2

O [water]
Liquid, Closed cell (Static) method
Conditions | vapor or sublimation pressure [kPa]
292.54 K | 2.16
303.48 K | 4.43
310.23 K | 6.19
315.78 K | 8.497
319.82 K | 10.5
327.62 K | 15.71
334.02 K | 20.83
343.07 K | 30.04
